Values of other authors, collected in patent US20020102237A1, “Compositions and methods for hepatitis treatment” (priority 2000, published 2002).

Tested on: hepatitis C infection

Row | Substance | patients responding with normalization of alanine aminotransferase (ALT) (hepatitis C infection, 3 million units subcutaneously three times weekly for six months) | relapse of responders upon discontinuation of therapy (hepatitis C infection, after standard six-month therapy) | response rate (long term efficacy) (chronic hepatitis C, interferon with or without Ribavirin)
1 | alpha-interferon | approximately 50% | half of those responding relapse | 
2 | interferon |  |  | about 25%
